According to the NIST ThermoML archive (doi:10.1021/je100888h):
± gives the expanded uncertainty stated by the source.

Legend:
[1] = xn = mol fraction of the nth substance listed; details: 101 kPa, Liquid
[2] = 101 kPa, Liquid

Oc1ccccc1 [phenol] + Cc1ccccc1
[1], 313.15 K
Details | mass density [kg/m3]
x2 = 0.0999 | 1033.8 ± 0.21
x2 = 0.1576 | 1021.66 ± 0.19
x2 = 0.2581 | 998.46 ± 0.17
x2 = 0.3492 | 978.14 ± 0.19
x2 = 0.4363 | 959.22 ± 0.22
x2 = 0.5438 | 936.46 ± 0.25
x2 = 0.6351 | 917.72 ± 0.27
x2 = 0.7288 | 898.99 ± 0.29
x2 = 0.8334 | 878.75 ± 0.32
x2 = 0.9015 | 865.97 ± 0.34

Cc1cccc(O)c1 [3-methylphenol] + CCCCCCCC
[1], 303.15 K
Details | mass density [kg/m3]
x2 = 0.1197 | 970.59 ± 0.2
x2 = 0.2473 | 916.86 ± 0.28
x2 = 0.3868 | 864.19 ± 0.36
x2 = 0.5012 | 825.55 ± 0.43
x2 = 0.6387 | 783.91 ± 0.48
x2 = 0.7818 | 745.29 ± 0.54
x2 = 0.8773 | 721.91 ± 0.57

Cc1ccc(O)cc1 [4-methylphenol]
Details | mass density [kg/m3]
[2], 303.15 K | 1025.9 ± 0.19

Cc1ccccc1O [2-methylphenol] + O
[1], 303.15 K
Details | mass density [kg/m3]
x1 = 0.5953 | 1033.22 ± 0.27
x1 = 0.675 | 1034.33 ± 0.29
x1 = 0.8012 | 1035.55 ± 0.33
x1 = 0.8184 | 1035.9 ± 0.34
x1 = 0.8443 | 1036.16 ± 0.35
x1 = 0.8903 | 1036.47 ± 0.36
x1 = 0.8909 | 1036.26 ± 0.36
x1 = 0.9409 | 1036.95 ± 0.38

Oc1ccccc1 [phenol]
Details | mass density [kg/m3]
[2], 313.15 K | 1058.3 ± 0.25

Cc1cccc(O)c1 [3-methylphenol]
Details | mass density [kg/m3]
[2], 303.15 K | 1025.95 ± 0.19

Cc1ccccc1O [2-methylphenol] + Cc1ccccc1
[1], 303.15 K
Details | mass density [kg/m3]
x2 = 0.0529 | 1027.55 ± 0.37
x2 = 0.0849 | 1021.91 ± 0.35
x2 = 0.1409 | 1011.86 ± 0.31
x2 = 0.203 | 1000.75 ± 0.28
x2 = 0.2749 | 987.89 ± 0.27
x2 = 0.341 | 975.95 ± 0.28
x2 = 0.4343 | 959.13 ± 0.28
x2 = 0.5187 | 943.88 ± 0.29
x2 = 0.6073 | 927.88 ± 0.29
x2 = 0.6873 | 913.43 ± 0.3
x2 = 0.7547 | 901.26 ± 0.31
x2 = 0.7852 | 895.73 ± 0.31
x2 = 0.8381 | 886.24 ± 0.32
x2 = 0.8481 | 884.43 ± 0.32
x2 = 0.9068 | 873.9 ± 0.33
x2 = 0.9346 | 869.01 ± 0.34
x2 = 0.9737 | 862.08 ± 0.34

Cc1cccc(O)c1 [3-methylphenol] + Cc1ccccc1
[1], 303.15 K
Details | mass density [kg/m3]
x2 = 0.0563 | 1016.89 ± 0.17
x2 = 0.0853 | 1012.17 ± 0.17
x2 = 0.1619 | 999.57 ± 0.15
x2 = 0.2521 | 984.6 ± 0.17
x2 = 0.3053 | 975.73 ± 0.19
x2 = 0.3799 | 963.22 ± 0.2
x2 = 0.4494 | 951.45 ± 0.22
x2 = 0.5205 | 939.49 ± 0.24
x2 = 0.7198 | 905.42 ± 0.28
x2 = 0.8129 | 889.49 ± 0.3
x2 = 0.8723 | 879.32 ± 0.32
x2 = 0.9534 | 865.4 ± 0.34

Cc1ccccc1 [toluene]
[2]
Details | mass density [kg/m3]
303.15 K | 857.47 ± 0.35
313.15 K | 848.07 ± 0.36

Oc1ccccc1 [phenol] + O
[1], 313.15 K
Details | mass density [kg/m3]
x1 = 0.3794 | 1038.84 ± 0.2
x1 = 0.4653 | 1042.74 ± 0.21
x1 = 0.6176 | 1048.12 ± 0.22
x1 = 0.7052 | 1050.69 ± 0.23
x1 = 0.8247 | 1054.06 ± 0.23
x1 = 0.9099 | 1056.28 ± 0.24

Cc1ccc(O)cc1 [4-methylphenol] + Cc1ccccc1
[1], 303.15 K
Details | mass density [kg/m3]
x2 = 0.0588 | 1016.31 ± 0.17
x2 = 0.1156 | 1007.12 ± 0.16
x2 = 0.1715 | 997.89 ± 0.15
x2 = 0.2813 | 979.91 ± 0.18
x2 = 0.3882 | 962.16 ± 0.21
x2 = 0.4914 | 944.32 ± 0.23
x2 = 0.5885 | 929.7 ± 0.25
x2 = 0.6906 | 912.26 ± 0.27
x2 = 0.775 | 897.37 ± 0.29
x2 = 0.8337 | 887.52 ± 0.31
x2 = 0.886 | 877.87 ± 0.32
x2 = 0.962 | 864.24 ± 0.34

Cc1ccccc1O [2-methylphenol] + CCCCCCCC
[1], 303.15 K
Details | mass density [kg/m3]
x2 = 0.0779 | 998.31 ± 0.32
x2 = 0.1634 | 958.43 ± 0.36
x2 = 0.2569 | 918.23 ± 0.4
x2 = 0.299 | 901.26 ± 0.41
x2 = 0.36 | 877.71 ± 0.44
x2 = 0.4277 | 853.18 ± 0.46
x2 = 0.4797 | 835.08 ± 0.48
x2 = 0.5787 | 803.61 ± 0.5
x2 = 0.6607 | 779.19 ± 0.53
x2 = 0.7664 | 750.13 ± 0.55
x2 = 0.8032 | 740.51 ± 0.56
x2 = 0.9143 | 713.35 ± 0.59

CCCCCCCC [octane]
Details | mass density [kg/m3]
[2], 303.15 K | 694.52 ± 0.62

Cc1ccccc1O [2-methylphenol]
Details | mass density [kg/m3]
[2], 303.15 K | 1036.94 ± 0.4

Cc1cccc(O)c1 [3-methylphenol] + O
[1], 303.15 K
Details | mass density [kg/m3]
x1 = 0.547 | 1020.94 ± 0.17
x1 = 0.5754 | 1021.37 ± 0.18
x1 = 0.6312 | 1022.09 ± 0.18
x1 = 0.6558 | 1022.4 ± 0.18
x1 = 0.704 | 1022.95 ± 0.18
x1 = 0.7933 | 1023.97 ± 0.18
x1 = 0.7997 | 1024.04 ± 0.18
x1 = 0.8215 | 1024.36 ± 0.18
x1 = 0.845 | 1024.52 ± 0.18
x1 = 0.8635 | 1024.3 ± 0.18
x1 = 0.8759 | 1024.67 ± 0.18
x1 = 0.8839 | 1024.94 ± 0.18
x1 = 0.9231 | 1025.3 ± 0.18
x1 = 0.9426 | 1025.49 ± 0.18
x1 = 0.9703 | 1025.78 ± 0.18

Cc1ccc(O)cc1 [4-methylphenol] + O
[1], 303.15 K
Details | mass density [kg/m3]
x1 = 0.548 | 1020.42 ± 0.17
x1 = 0.6243 | 1021.77 ± 0.18
x1 = 0.6758 | 1022.35 ± 0.18
x1 = 0.74 | 1023.33 ± 0.18
x1 = 0.7976 | 1023.92 ± 0.18
x1 = 0.8897 | 1025.1 ± 0.18
